# Assay results as given in patent publication US10544147B2, “Purine inhibitors of human phosphatidylinositol 3-kinase delta” (MERCK SHARP & DOHME CORP., priority 2016, dated 2020).
# pIC50: −log10 of the molar value.
# Tests used:
# [1] = molecular target: PI3Kalpha (Homo sapiens (Human), UniProt P42336); assay: HTRF PI3K biochemical assay, alpha isoform (selectivity versus delta); settings: ratio PI3K-alpha IC50 value/PI3K-delta IC50 value
# Protocol: (§1) HTRF PI3K Biochemical Assay to Measure Intrinsic Potency of Compound Inhibitors
# (§2) This loss of signal is nonlinear with respect to both increasing product and time. This non-linear detection will impact accuracy of IC50 calculations; therefore, there is a need for a correction factor to obtain more accurate IC50 values. This correction is derived from a PIP3 standard curve run in a separate assay plate. All data were calculated using the ratio of acceptor (APC) to donor (Europium) fluorescence in each well of the assay plate. […] An IC50 was then calculated fitting the % inhibition data to the equation: % inhibition=min+(Max−min)/1+([inhibitor]/IC50)^n) where min is the % inhibition with inhibitor, max is the signal in DMSO control, and n is the Hill slope.
# (§3) The biological data was collected using the methodology described above.
# The determination of relative selectivity for a given compound is defined as the relative ratio of the (PI3K-alphaIC50 value/PI3K-delta IC50 value).
# [2] = molecular target: PI3Kdelta (Homo sapiens (Human), UniProt O00329); assay: HTRF PI3K biochemical assay, delta isoform; settings: 0.3 nM enzyme, 100 uM ATP, 50 uM PIP2; form screened (neutral or TFA salt)
# Protocol: as §1, §2, §3
# Chain of PI3Kdelta (O00329 whole entry, canonical isoform): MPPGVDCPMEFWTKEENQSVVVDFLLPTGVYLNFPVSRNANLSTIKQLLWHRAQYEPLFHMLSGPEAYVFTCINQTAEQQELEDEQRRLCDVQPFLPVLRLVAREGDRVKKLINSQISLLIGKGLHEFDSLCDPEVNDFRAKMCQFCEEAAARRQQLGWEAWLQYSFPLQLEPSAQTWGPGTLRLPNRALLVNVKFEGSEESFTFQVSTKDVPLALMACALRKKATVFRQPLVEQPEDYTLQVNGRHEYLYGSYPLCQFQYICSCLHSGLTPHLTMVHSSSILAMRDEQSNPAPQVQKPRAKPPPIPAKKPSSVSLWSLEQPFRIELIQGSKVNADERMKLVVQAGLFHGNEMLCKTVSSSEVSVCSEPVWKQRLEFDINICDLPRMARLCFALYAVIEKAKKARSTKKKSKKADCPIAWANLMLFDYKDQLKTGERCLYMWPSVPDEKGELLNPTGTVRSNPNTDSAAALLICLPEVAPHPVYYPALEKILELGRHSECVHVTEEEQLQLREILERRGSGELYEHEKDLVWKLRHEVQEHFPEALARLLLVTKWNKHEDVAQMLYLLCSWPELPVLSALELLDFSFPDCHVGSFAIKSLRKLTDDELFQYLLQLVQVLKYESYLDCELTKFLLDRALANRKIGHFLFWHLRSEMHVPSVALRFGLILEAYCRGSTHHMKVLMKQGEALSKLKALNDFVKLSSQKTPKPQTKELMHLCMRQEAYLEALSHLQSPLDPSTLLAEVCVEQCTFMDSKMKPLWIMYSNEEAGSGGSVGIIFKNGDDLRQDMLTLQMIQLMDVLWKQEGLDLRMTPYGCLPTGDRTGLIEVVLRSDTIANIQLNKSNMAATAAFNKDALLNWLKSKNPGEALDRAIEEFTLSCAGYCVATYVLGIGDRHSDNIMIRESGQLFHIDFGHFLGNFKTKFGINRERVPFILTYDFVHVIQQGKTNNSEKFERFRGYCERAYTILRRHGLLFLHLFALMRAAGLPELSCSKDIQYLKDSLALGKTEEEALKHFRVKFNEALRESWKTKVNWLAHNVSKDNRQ
# Chain of PI3Kdelta (P27986 whole entry partner, canonical isoform): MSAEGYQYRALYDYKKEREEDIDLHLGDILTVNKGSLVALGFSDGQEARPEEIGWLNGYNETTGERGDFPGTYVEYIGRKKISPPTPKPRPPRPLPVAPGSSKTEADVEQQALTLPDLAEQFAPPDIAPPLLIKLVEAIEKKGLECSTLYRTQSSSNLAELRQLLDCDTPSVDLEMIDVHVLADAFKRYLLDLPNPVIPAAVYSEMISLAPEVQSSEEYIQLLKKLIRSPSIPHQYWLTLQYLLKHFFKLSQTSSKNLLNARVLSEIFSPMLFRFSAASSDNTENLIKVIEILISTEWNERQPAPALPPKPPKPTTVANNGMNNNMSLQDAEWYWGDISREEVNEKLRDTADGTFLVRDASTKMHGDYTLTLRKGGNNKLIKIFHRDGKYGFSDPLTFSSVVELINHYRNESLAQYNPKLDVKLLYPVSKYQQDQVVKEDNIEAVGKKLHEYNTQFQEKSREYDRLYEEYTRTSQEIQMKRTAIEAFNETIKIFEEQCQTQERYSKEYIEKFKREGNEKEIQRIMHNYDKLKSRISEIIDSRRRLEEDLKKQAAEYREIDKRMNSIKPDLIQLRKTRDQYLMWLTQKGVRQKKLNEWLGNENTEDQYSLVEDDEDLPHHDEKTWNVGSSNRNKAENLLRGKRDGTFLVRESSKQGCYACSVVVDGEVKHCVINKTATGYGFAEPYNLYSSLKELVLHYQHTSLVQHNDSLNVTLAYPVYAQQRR
# Chain of PI3Kalpha (P42336 whole entry, canonical isoform): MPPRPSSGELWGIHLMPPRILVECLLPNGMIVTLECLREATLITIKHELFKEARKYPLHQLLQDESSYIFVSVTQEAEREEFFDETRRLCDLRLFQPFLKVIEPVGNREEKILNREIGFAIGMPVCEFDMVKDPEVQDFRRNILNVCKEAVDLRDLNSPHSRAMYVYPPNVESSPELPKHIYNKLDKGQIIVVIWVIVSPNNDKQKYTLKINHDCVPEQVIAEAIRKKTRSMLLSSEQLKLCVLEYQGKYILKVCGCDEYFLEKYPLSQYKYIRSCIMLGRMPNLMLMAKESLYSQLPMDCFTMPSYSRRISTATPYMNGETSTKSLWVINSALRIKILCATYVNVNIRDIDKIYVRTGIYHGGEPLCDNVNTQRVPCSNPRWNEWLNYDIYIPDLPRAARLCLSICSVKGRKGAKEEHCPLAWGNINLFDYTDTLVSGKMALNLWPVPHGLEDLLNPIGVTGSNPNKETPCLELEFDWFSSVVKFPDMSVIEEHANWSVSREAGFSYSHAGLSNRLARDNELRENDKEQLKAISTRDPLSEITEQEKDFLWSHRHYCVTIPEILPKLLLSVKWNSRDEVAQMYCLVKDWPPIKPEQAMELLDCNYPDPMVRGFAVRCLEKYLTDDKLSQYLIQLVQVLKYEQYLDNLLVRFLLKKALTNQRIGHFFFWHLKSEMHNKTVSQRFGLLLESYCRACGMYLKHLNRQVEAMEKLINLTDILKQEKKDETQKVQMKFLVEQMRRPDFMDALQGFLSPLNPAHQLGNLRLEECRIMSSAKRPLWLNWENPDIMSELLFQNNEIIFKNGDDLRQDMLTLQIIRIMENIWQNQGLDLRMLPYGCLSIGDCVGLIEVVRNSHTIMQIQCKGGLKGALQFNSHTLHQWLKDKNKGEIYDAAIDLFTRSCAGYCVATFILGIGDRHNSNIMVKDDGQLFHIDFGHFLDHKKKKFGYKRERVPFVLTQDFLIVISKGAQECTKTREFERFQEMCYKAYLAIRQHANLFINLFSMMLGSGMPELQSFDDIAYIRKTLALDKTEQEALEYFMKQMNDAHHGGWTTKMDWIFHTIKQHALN
# Chain of PI3Kalpha (P27986 whole entry partner, canonical isoform): as the sequence (P27986 whole entry partner, canonical isoform) above
Compound,Relative Selectivity versus PI3Kalpha [1],pIC50 [2]
"CCn1c(-c2cnc(C)nc2)nc2c(-c3ccc4c(c3)C(C)(Cc3cncnc3)C(=O)N4)ncnc21 (racemic) [Compound 1-33, 5-(9-ethyl-8-(2-methylpyrimidin-5-yl)-9H-purin-6-yl)-3-methyl-3-(pyrimidin-5-ylmethyl)indolin-2-one]",>10,–
"CCn1c(-c2cnc(C)nc2)nc2c(-c3ccc4c(c3)C(C)(Nc3ccncc3)C(=O)N4)ncnc21 (racemic) [Compound 2-9, (R and S)-5-[9-ethyl-8-(2-methylpyrimidin-5-yl)-9H-purin-6-yl]-3-methyl-3-(pyridin-4-ylamino)-1,3-dihydro-2H-indol-2-one]",>10,6.84
"CCn1c(-c2cnc(C)nc2)nc2c(-c3ccc4c(c3)C(C)(N3CCC5OCCC53)C(=O)N4)ncnc21 (racemic) [Compound 2-10, (R and S)-5-[9-ethyl-8-(2-methylpyrimidin-5-yl)-9H-purin-6-yl]-3-(hexahydro-4H-furo[3,2-b]pyrrol-4-yl)-3-methyl-1,3-dihydro-2H-indol-2-one]",>10,7.85
"CCn1c(-c2cnc(C)nc2)nc2c(-c3ccc4c(c3)C(C)(N[C@H](C)C3CC3)C(=O)N4)ncnc21 (mixture of isomers) [Compound 2-11, 3-{[(1R)-1-cyclopropylethyl]amino}-5-[9-ethyl-8-(2-methylpyrimidin-5-yl)-9H-purin-6-yl]-3(R and S)-methyl-1,3-dihydro-2H-indol-2-one]",>10,7.82
"CCn1c(-c2cnc(C)nc2)nc2c(-c3ccc4c(c3)C(C)(N(C)CCOC)C(=O)N4)ncnc21 (racemic) [Compound 2-14, (R and S)-5-[9-ethyl-8-(2-methylpyrimidin-5-yl)-9H-purin-6-yl]-3-[(2-methoxyethyl)(methyl)amino]-3-methyl-1,3-dihydro-2H-indol-2-one]",>10,7.34
"CCn1c(-c2cnc(C)nc2)nc2c(-c3ccc4c(c3)C(C)(N(C)C(C)C)C(=O)N4)ncnc21 (racemic) [Compound 2-15, (R and S)-5-[9-ethyl-8-(2-methylpyrimidin-5-yl)-9H-purin-6-yl]-3-methyl-3-[methyl(1-methylethyl)amino]-1,3-dihydro-2H-indol-2-one]",>10,7.34
"CCn1c(-c2cnc(C)nc2)nc2c(-c3ccc4c(c3)C(C)(NCCOC)C(=O)N4)ncnc21 (racemic) [Compound 2-16, (R and S)-5-[9-ethyl-8-(2-methylpyrimidin-5-yl)-9H-purin-6-yl]-3-[(2-methoxyethyl)amino]-3-methyl-1,3-dihydro-2H-indol-2-one]",>10,7.37
"CCn1c(-c2cnc(C)nc2)nc2c(-c3ccc4c(c3)C(C)(N[C@H](C)C3CCC3)C(=O)N4)ncnc21 (mixture of isomers) [Compound 2-17, 3-{[(1R)-1-cyclobutylethyl]amino}-5-[9-ethyl-8-(2-methylpyrimidin-5-yl)-9H-purin-6-yl]-3(R and S)-methyl-1,3-dihydro-2H-indol-2-one]",>10,8.00
"CCn1c(-c2cnc(C)nc2)nc2c(-c3ccc4c(c3)C(C)(NCC3(C)CCC3)C(=O)N4)ncnc21 (racemic) [Compound 2-18, (R and S)-5-[9-ethyl-8-(2-methylpyrimidin-5-yl)-9H-purin-6-yl]-3-methyl-3-{[(1-methylcyclobutyl)methyl]amino}-1,3-dihydro-2H-indol-2-one]",>10,8.10
"CCn1c(-c2cnc(C)nc2)nc2c(-c3ccc4c(c3)C(C)(NCC3(C#N)CCC3)C(=O)N4)ncnc21 (racemic) [Compound 2-19, (R and S)-1-[({5-[9-ethyl-8-(2-methylpyrimidin-5-yl)-9H-purin-6-yl]-3-methyl-2-oxo-2,3-dihydro-1H-indol-3-yl}amino)methyl]cyclobutane-carbonitrile]",>10,7.66
"CCn1c(-c2cnc(C)nc2)nc2c(-c3ccc4c(c3)C(C)(NCC3CCC3)C(=O)N4)ncnc21 (racemic) [Compound 2-20, (R and S)-3-[(cyclobutylmethyl)amino]-5-[9-ethyl-8-(2-methylpyrimidin-5-yl)-9H-purin-6-yl]-3-methyl-1,3-dihydro-2H-indol-2-one]",>10,7.64
"CCn1c(-c2cnc(C)nc2)nc2c(-c3ccc4c(c3)C(C)(OC(C)C)C(=O)N4)ncnc21 (racemic) [Compound 2-73, 5-(9-ethyl-8-(2-methylpyrimidin-5-yl)-9H-purin-6-yl)-3-isopropoxy-3-methylindolin-2-one]",>10,–
"CCn1c(-c2cnc(C)nc2)nc2c(-c3ccc4c(c3)C(C)(OC3CCC3)C(=O)N4)ncnc21 (racemic) [Compound 2-74, 3-cyclobutoxy-5-(9-ethyl-8-(2-methylpyrimidin-5-yl)-9H-purin-6-yl)-3-methylindolin-2-one]",>10,–
"Cc1ncc(-c2nc3c(-c4ccc5c(c4)C(C)(OCC4CC4)C(=O)N5)ncnc3n2C)cn1 (racemic) [Compound 2-75, 3-(cyclopropylmethoxy)-3-methyl-5-(9-methyl-8-(2-methylpyrimidin-5-yl)-9H-purin-6-yl)indolin-2-one]",>10,–
"CCn1c(-c2cnc(C)nc2)nc2c(-c3ccc4c(c3)C(C#N)(CC(C)C)C(=O)N4)ncnc21 (stereo not shown) [Compound 1-11, 5-(9-Ethyl-8-(2-methylpyrimidin-5-yl)-9H-purin-6-yl)-3-isobutyl-2-oxoindoline-3-carbonitrile]",>10,–
"CCn1c(-c2cnc(C)nc2)nc2c(-c3ccc4c(c3)C(C)(Cc3ccccc3)CN4)ncnc21 (stereo not shown) [Compound 1-18, 6-(3-Benzyl-3-methylindolin-5-yl)-9-ethyl-8-(2-methylpyrimidin-5-yl)-9H-purine]",>10,–
"CCn1c(-c2cnc(C)nc2)nc2c(-c3ccc4c(c3)C(C)(Cc3ccccc3)CN4C(C)=O)ncnc21 (stereo not shown) [Compound 1-19, 1-(3-Benzyl-5-(9-ethyl-8-(2-methylpyrimidin-5-yl)-9H-purin-6-yl)-3-methylindolin-1-yl)ethan-1-one]",>10,–
"CCn1c(-c2cnc(C)nc2)nc2c(-c3ccc4c(c3)C(C)(Cc3ccccc3)CN4C)ncnc21 (stereo not shown) [Compound 1-22, 6-(3-Benzyl-1,3-dimethylindolin-5-yl)-9-ethyl-8-(2-methylpyrimidin-5-yl)-9H-purine]",>10,–
"CCn1c(-c2cnc(C)nc2)nc2c(-c3ccc4c(c3)C(C#N)(N3CC(C)(OC)C3)C(=O)N4)ncnc21 (stereo not shown) [Compound 2-77, 5-(9-ethyl-8-(2-methylpyrimidin-5-yl)-9H-purin-6-yl)-3-(3-methoxy-3-methylazetidin-1-yl)-2-oxoindoline-3-carbonitrile]",>10,–
"Cc1ncc(-c2nc3c(-c4ccc5c(c4)C4(CCN(C(=O)C6CC6)CC4)C(=O)N5)ncnc3n2C)cn1 [Compound 3-25, 1′-(cyclopropanecarbonyl)-5-(9-methyl-8-(2-methylpyrimidin-5-yl)-9H-purin-6-yl)spiro[indoline-3,4′-piperidin]-2-one]",>10,–
"CCn1c(-c2cnc(C)nc2)nc2c(-c3ccc4c(c3)C3(CCCC3)C(=O)N4)ncnc21 [Compound 3-34, 5′-(9-ethyl-8-(2-methylpyrimidin-5-yl)-9H-purin-6-yl)spiro[cyclopentane-1,3′-indolin]-2′-one]",>10,–
"CCn1c(-c2cnc(C)nc2)nc2c(-c3ccc4c(c3)CNS4(=O)=O)ncnc21 [Compound 4-13, 5-(9-ethyl-8-(2-methylpyrimidin-5-yl)-9H-purin-6-yl)-2,3-dihydrobenzo[d]isothiazole 1,1-dioxide]",9,–
"CCn1c(-c2cnc(C)nc2)nc2c(-c3ccc4c(c3)CN(C)S4(=O)=O)ncnc21 [Compound 4-14, 5-(9-ethyl-8-(2-methylpyrimidin-5-yl)-9H-purin-6-yl)-2-methyl-2,3-dihydrobenzo[d]isothiazole 1,1-dioxide]",>10,–
"CCn1c(-c2cnc(C)nc2)nc2c(-c3ccc4c(c3)CNC4=O)ncnc21 [Compound 4-15, 5-(9-ethyl-8-(2-methylpyrimidin-5-yl)-9H-purin-6-yl)isoindolin-1-one]",7,–
"CCn1c(-c2cnc(C)nc2)nc2c(-c3ccc4c(c3)C(C)(c3ccccc3)OC(=O)N4)ncnc21 (stereo not shown) [Compound 4-16, 6-(9-ethyl-8-(2-methylpyrimidin-5-yl)-9H-purin-6-yl)-4-methyl-4-phenyl-1,4-dihydro-2H-benzo[d][1,3]oxazin-2-one]",>10,–
"CCn1c(-c2cnc(C)nc2)nc2c(-c3ccc4oc(=O)n(Cc5ccccc5)c4c3)ncnc21 [Compound 5-3, 3-benzyl-5-[9-ethyl-8-(2-methylpyrimidin-5-yl)-9H-purin-6-yl]-1,3-benzoxazol-2(3H)-one]",>10,–
"CCn1c(-c2cnc(C)nc2)nc2c(-c3ccc4oc(=O)n(CC5CCOCC5)c4c3)ncnc21 [Compound 5-4, 5-[9-ethyl-8-(2-methylpyrimidin-5-yl)-9H-purin-6-yl]-3-(tetrahydro-2H-pyran-4-ylmethyl)-1,3-benzoxazol-2(3H)-one]",>10,–
